From ChEMBL document CHEMBL2203036, “Discovery of 1-[2-(2,4-dimethylphenylsulfanyl)phenyl]piperazine (Lu AA21004): a novel multimodal compound for the treatment of major depressive disorder” (J Med Chem, 2011)
pIC50, pKi: −log10 of the molar value. Blank lines part the entries; values can stand above or below the molecule they belong to.

Experiments:
[1] = biological target: T1, 5-hydroxytryptamine receptor 1A (Homo sapiens, UniProt P08908); experiment: biochemical; assay type: cell-based, HEK293
T1 sequence (P08908 whole entry): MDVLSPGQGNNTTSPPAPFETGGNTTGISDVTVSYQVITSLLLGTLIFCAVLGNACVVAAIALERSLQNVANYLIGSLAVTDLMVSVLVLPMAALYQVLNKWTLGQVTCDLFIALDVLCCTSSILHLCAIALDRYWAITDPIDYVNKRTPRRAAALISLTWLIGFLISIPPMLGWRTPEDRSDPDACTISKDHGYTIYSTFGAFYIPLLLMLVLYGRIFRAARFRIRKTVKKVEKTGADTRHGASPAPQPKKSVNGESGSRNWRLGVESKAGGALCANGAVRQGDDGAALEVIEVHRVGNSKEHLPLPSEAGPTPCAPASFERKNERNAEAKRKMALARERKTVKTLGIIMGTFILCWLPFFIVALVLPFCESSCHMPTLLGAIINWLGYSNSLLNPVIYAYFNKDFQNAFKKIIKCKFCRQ
Description: Displacement of [3H]5-carboxamidotryptamine to human 5HT1A expressed in HEK293 cells by filter binding assay

[2] = biological target: T2, 5-hydroxytryptamine receptor 3A (Homo sapiens, UniProt P46098); experiment: Displacement of [3H]granisetron from human 5HT3A receptor expressed in HEK293 cells by filter binding assay; assay type: cell-based
T2 sequence (P46098 whole entry): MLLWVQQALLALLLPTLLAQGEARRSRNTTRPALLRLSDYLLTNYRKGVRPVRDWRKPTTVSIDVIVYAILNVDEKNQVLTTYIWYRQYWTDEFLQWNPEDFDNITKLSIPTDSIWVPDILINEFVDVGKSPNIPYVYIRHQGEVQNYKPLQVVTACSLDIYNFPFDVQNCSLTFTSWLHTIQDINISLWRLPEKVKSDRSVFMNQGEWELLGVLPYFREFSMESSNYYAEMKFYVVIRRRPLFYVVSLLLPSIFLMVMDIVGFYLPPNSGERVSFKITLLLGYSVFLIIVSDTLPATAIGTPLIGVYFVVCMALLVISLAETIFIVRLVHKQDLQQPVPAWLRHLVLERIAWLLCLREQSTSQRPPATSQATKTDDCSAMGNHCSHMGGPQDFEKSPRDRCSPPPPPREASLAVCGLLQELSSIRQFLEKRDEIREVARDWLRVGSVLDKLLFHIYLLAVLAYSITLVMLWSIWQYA

[3] = biological target: Sodium-dependent serotonin transporter (Rattus norvegicus, UniProt P31652); experiment: Inhibition of SERT-mediated [3H]5HT uptake in rat synaptosomes by scintillation counting; assay type: subcellular, Brain
Sodium-dependent serotonin transporter, sequence (P31652 whole entry): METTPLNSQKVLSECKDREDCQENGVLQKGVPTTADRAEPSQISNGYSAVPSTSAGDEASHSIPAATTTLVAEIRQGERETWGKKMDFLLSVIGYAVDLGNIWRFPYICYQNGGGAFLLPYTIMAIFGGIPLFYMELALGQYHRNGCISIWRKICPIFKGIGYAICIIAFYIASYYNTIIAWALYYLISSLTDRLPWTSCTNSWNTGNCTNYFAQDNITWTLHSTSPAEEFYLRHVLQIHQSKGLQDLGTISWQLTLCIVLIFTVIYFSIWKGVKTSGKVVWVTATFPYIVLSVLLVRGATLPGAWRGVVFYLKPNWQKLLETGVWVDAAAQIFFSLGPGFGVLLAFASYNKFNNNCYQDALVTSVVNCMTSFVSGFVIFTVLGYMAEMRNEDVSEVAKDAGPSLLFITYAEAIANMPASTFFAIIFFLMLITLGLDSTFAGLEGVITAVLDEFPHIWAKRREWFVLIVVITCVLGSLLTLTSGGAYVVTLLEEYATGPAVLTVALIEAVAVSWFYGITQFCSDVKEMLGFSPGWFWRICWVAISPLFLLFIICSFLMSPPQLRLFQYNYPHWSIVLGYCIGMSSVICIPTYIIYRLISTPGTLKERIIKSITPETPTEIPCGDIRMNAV

[4] = Inhibition of NET-mediated [3H]NE in rat synaptosomes by scintillation counting; assay type: subcellular, Brain
[5] = biological target: Sodium-dependent dopamine transporter (Rattus norvegicus, UniProt P23977); experiment: Inhibition of DAT-mediated [3H]DA in rat synaptosomes by scintillation counting; assay type: subcellular, Brain
Sodium-dependent dopamine transporter, sequence (P23977 whole entry): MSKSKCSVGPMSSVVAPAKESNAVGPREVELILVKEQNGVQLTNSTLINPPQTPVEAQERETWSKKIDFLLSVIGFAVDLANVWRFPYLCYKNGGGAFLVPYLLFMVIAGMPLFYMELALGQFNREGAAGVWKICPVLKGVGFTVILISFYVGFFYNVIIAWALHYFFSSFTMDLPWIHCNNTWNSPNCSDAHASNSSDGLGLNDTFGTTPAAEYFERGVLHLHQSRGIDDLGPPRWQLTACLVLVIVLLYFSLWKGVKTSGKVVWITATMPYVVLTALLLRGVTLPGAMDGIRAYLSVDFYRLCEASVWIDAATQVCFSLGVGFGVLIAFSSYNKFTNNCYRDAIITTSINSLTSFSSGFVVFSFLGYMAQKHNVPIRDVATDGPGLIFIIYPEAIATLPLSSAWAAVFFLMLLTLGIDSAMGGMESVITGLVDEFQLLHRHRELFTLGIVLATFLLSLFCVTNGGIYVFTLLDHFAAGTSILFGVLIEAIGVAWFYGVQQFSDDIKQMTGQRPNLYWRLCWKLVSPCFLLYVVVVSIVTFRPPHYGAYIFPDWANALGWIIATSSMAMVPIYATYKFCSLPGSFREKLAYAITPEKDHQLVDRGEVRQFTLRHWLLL

Rattus norvegicus [6] = species on record: Rattus norvegicus; experiment: Selectivity ratio of IC50 for NET to IC50 for SERT in rat synaptosomes; settings: Brain
Liver microsomes [7] = experiment: Intrinsic clearance in rat liver microsomes at 1 uM after 60 mins by LC-MS/MS analysis; assay type: ADME, Microsome; settings: 1 h
Cytochrome P450 3A4 = Cytochrome P450 3A4 (Homo sapiens, UniProt P08684); experiment: Inhibition of human recombinant CYP3A4 using resorufin benzyl ether after 30 mins by fluorescence spectrophotometric analysis; assay type: ADME
Cytochrome P450 3A4, sequence (P08684 whole entry): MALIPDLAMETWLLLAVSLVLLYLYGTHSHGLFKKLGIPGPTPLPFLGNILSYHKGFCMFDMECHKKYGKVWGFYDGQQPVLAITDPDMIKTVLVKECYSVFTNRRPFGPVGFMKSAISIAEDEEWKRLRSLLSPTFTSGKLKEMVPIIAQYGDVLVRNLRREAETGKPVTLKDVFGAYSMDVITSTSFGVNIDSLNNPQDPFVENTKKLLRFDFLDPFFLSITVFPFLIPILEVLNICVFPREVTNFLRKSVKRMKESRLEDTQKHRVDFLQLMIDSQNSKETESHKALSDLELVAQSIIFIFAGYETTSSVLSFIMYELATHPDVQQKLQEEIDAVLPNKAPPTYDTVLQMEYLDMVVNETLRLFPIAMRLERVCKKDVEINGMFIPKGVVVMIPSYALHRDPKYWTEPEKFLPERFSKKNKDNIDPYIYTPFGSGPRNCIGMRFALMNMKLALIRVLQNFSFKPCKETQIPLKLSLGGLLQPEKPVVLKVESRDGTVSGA

Cytochrome P450 2D6 = Cytochrome P450 2D6 (Homo sapiens, UniProt P10635); experiment: Inhibition of human recombinant CYP2D6 using 3-[2-(N,N-diethyl-N-methylamino)ethyl]-7-methoxy- 4-methylcoumarin after 45 mins by fluorescence spectrophotometric analysis; assay type: ADME
Cytochrome P450 2D6, sequence (P10635 whole entry): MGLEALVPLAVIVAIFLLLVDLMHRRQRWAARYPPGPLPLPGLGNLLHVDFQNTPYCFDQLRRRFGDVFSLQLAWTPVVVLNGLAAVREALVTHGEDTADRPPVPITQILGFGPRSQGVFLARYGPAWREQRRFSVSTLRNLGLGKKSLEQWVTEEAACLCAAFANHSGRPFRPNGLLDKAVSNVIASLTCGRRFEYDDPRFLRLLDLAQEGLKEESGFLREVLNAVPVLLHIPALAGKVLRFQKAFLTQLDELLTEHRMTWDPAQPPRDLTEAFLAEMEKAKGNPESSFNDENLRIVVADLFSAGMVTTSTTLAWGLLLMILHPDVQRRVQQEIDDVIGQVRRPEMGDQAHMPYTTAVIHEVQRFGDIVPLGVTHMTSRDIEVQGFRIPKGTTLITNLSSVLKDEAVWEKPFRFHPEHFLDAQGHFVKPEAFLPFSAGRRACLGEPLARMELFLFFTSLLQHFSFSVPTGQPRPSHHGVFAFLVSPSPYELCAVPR

Liver microsomes [8] = experiment: Intrinsic clearance in human liver microsomes at 1 uM after 60 mins by LC-MS/MS analysis; assay type: ADME, Microsome; settings: 1 h
Cytochrome P450 1A2 = biological target: T3, Cytochrome P450 1A2 (Homo sapiens, UniProt P05177); experiment: Inhibition of human recombinant CYP1A2 using 7-ethoxy-3-cyanocoumarin after 28 mins by fluorescence spectrophotometric analysis; assay type: ADME
T3 sequence (P05177 whole entry): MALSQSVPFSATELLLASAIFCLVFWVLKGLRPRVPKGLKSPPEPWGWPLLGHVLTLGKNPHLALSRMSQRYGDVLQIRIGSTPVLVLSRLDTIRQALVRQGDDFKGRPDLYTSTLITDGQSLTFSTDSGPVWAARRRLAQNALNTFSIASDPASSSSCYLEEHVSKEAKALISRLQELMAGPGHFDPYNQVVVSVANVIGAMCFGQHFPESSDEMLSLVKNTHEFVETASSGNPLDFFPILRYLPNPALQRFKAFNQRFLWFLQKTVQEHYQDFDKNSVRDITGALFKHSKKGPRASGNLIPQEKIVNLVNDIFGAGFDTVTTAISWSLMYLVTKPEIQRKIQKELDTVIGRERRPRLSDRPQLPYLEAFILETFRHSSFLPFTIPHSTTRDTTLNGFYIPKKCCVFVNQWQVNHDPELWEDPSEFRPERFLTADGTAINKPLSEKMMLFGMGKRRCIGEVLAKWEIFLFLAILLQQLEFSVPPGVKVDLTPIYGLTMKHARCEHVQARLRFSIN

Cytochrome P450 2C9 = Cytochrome P450 2C9 (Homo sapiens, UniProt P11712); experiment: Inhibition of human recombinant CYP2C9 using dibenzylfluorescein after 45 mins by fluorescence spectrophotometric analysis; assay type: ADME
Cytochrome P450 2C9, sequence (P11712 whole entry): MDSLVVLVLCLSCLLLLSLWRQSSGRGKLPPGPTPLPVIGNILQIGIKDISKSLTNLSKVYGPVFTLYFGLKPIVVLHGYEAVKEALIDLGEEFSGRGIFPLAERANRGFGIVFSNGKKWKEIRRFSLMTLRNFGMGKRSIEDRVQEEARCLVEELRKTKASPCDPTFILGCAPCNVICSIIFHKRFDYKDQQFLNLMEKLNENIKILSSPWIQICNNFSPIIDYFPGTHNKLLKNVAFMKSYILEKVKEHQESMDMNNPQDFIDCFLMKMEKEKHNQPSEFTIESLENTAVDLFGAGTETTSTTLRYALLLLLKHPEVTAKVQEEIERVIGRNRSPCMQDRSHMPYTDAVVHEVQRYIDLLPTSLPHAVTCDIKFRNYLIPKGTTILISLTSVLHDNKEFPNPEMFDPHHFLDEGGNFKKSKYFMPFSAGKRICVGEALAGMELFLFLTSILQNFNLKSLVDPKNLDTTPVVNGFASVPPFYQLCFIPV

Rattus norvegicus [9] = species on record: Rattus norvegicus; experiment: Selectivity ratio of IC50 for DAT to IC50 for SERT in rat synaptosomes; settings: Brain

SMILES: Cl.Clc1ccc(Sc2ccccc2N2CCNCC2)c(Cl)c1
pIC50 [4]: 6.92
pKi [1]: 7.11
pIC50 [5]: 6.60
Ratio IC50 (Rattus norvegicus [6]): 23
CLH (Liver microsomes [7]): 38 mL/min
pIC50 (Cytochrome P450 3A4): 5.36
pKi [2]: 7.59
pIC50 (Cytochrome P450 2D6): 6.05
CLH (Liver microsomes [8]): 0.5 L/min
pIC50 (Cytochrome P450 1A2): 4.57
pIC50 (Cytochrome P450 2C9): 4.47
Ratio IC50 (Rattus norvegicus [9]): 48
pIC50 [3]: 8.28

SMILES: CC(C)(C)c1ccc(Sc2ccccc2N2CCNCC2)cc1
pKi [1]: 5.60
pKi [2]: 6.35
pIC50 [3]: 5.68

SMILES: O=C1CC2(CCCC2)CC(=O)N1CCCCN1CCN(c2ncccn2)CC1 [BUSPIRONE]
pKi [2]: < 5.00

SMILES: Cc1ccc(Sc2ccc(C)cc2N2CCNCC2)cc1
pKi [1]: 5.55
pKi [2]: 6.59
pIC50 [3]: 7.70

SMILES: Cc1ccc(Sc2c(C)cccc2N2CCNCC2)c(C)c1
pKi [1]: 6.27
pKi [2]: 6.17
pIC50 [3]: 6.27

SMILES: Cc1ccc(Sc2ccccc2N2CCNCC2)cc1.Cl
pIC50 [4]: 6.34
pKi [1]: 7.36
pIC50 [5]: 6.96
Ratio IC50 (Rattus norvegicus [6]): 25
CLH (Liver microsomes [7]): 260 mL/min
pIC50 (Cytochrome P450 3A4): 4.80
pKi [2]: 7.25
pIC50 (Cytochrome P450 2D6): 5.57
CLH (Liver microsomes [8]): 1.1 L/min
pIC50 (Cytochrome P450 1A2): 4.40
pIC50 (Cytochrome P450 2C9): 4.40
Ratio IC50 (Rattus norvegicus [9]): 6.1
pIC50 [3]: 7.74

SMILES: Cc1ccc(Sc2ccc(C)cc2N2CCNCC2)c(C)c1
pKi [2]: 6.82
pIC50 [3]: 7.60

SMILES: Cc1ccc(Sc2ccc(Cl)cc2)c(N2CCNCC2)c1
pKi [1]: 5.60
pKi [2]: 6.30
pIC50 [3]: 8.02

SMILES: c1ccc(Sc2ccccc2N2CCNCC2)cc1
pKi [1]: 7.52
pKi [2]: 7.19
pIC50 [3]: 6.41

SMILES: Cc1ccc(Sc2ccccc2N2CCN(C)CC2)c(C)c1
pKi [1]: 6.92
pKi [2]: 6.89
pIC50 [3]: 6.17

SMILES: Clc1cccc(Sc2ccccc2N2CCNCC2)c1Cl
Ratio IC50 (Rattus norvegicus [6]): 7
pIC50 (Cytochrome P450 2C9): 4.40
Ratio IC50 (Rattus norvegicus [9]): 1

SMILES: Cc1ccc(Sc2cccc(C)c2N2CCNCC2)c(C)c1
pKi [1]: 6.38
pKi [2]: 6.80
pIC50 [3]: 7.36

SMILES: Clc1ccc(Sc2ccccc2N2CCNCC2)cc1Cl
pKi [1]: 7.17
pKi [2]: 6.96
pIC50 [3]: 8.33

SMILES: FC(F)(F)c1ccc(Sc2ccccc2N2CCNCC2)cc1
pKi [1]: 6.62
pKi [2]: 6.85
pIC50 [3]: 8.16

SMILES: Cc1ccc(Oc2ccccc2N2CCNCC2)c(C)c1
pKi [1]: 7.19
pKi [2]: 6.57
pIC50 [3]: 6.60

SMILES: Cc1ccc(Sc2ccc(F)cc2)c(N2CCNCC2)c1
pKi [1]: 5.96
pKi [2]: 6.36
pIC50 [3]: 7.17

SMILES: Fc1ccc(Sc2ccccc2N2CCNCC2)cc1
pKi [1]: 7.41
pKi [2]: 7.28
pIC50 [3]: 7.17

SMILES: Cc1ccc(Sc2ccccc2)c(N2CCNCC2)c1
pKi [1]: 5.96
pKi [2]: 6.51
pIC50 [3]: 6.82

SMILES: COc1ccc(Sc2ccccc2N2CCNCC2)cc1
pKi [1]: 6.89
pKi [2]: 7.44
pIC50 [3]: 8.10

SMILES: Cc1ccc(Sc2cc(C)ccc2N2CCNCC2)c(C)c1
pKi [2]: 7.35
pIC50 [3]: 6.70

More lines, now with the values ahead:

pKi [1]: 7.23
pKi [2]: 7.28
pIC50 [3]: 6.48
SMILES: COc1ccccc1Sc1ccccc1N1CCNCC1

pKi [1]: 6.68
pKi [2]: 7.77
pIC50 [3]: 7.96
SMILES: COc1cc(C)ccc1Sc1ccccc1N1CCNCC1

pKi [1]: 7.03
pKi [2]: 7.92
pIC50 [3]: 8.37
SMILES: COc1ccc(Sc2ccccc2N2CCNCC2)c(Cl)c1

pIC50 [3]: 7.43
SMILES: COc1cccc(Sc2ccccc2N2CCNCC2)c1OC

pKi [1]: 6.80
pKi [2]: 7.07
pIC50 [3]: 7.82
SMILES: COc1ccc(Sc2ccccc2N2CCNCC2)cc1OC

pKi [2]: 7.57
pIC50 [3]: 6.89
SMILES: Cc1ccc(Sc2ccccc2N2CCCNCC2)c(C)c1

pIC50 [4]: 6.47
pKi [1]: 7.11
pIC50 [5]: 6.49
Ratio IC50 (Rattus norvegicus [6]): 35
CLH (Liver microsomes [7]): 120 mL/min
pIC50 (Cytochrome P450 3A4): 5.26
pKi [2]: 8.14
pIC50 (Cytochrome P450 2D6): 5.82
CLH (Liver microsomes [8]): 0.6 L/min
pIC50 (Cytochrome P450 1A2): 4.47
pIC50 (Cytochrome P450 2C9): 4.40
Ratio IC50 (Rattus norvegicus [9]): 33
pIC50 [3]: 8.01
SMILES: Cc1ccc(Sc2ccccc2N2CCNCC2)c(Cl)c1.Cl

pKi [1]: 7.00
pKi [2]: 7.19
pIC50 [3]: 7.27
SMILES: Cc1cccc(Sc2ccccc2N2CCNCC2)c1

pKi [1]: 6.48
pKi [2]: 7.49
pIC50 [3]: 8.12
SMILES: COc1ccc(Sc2ccccc2N2CCNCC2)c(OC)c1

pIC50 [4]: 6.06
pKi [1]: 7.28
pIC50 [5]: 6.92
Ratio IC50 (Rattus norvegicus [6]): 150
CLH (Liver microsomes [7]): 290 mL/min
pIC50 (Cytochrome P450 3A4): 4.96
pKi [2]: 7.48
pIC50 (Cytochrome P450 2D6): 5.55
CLH (Liver microsomes [8]): 0.5 L/min
pIC50 (Cytochrome P450 1A2): 4.59
pIC50 (Cytochrome P450 2C9): 4.47
Ratio IC50 (Rattus norvegicus [9]): 21
pIC50 [3]: 8.24
SMILES: Cc1ccc(Sc2ccccc2N2CCNCC2)cc1C.Cl

pIC50 [5]: 6.77
Ratio IC50 (Rattus norvegicus [6]): 20
pKi [2]: 7.54
pIC50 (Cytochrome P450 1A2): 4.62
Ratio IC50 (Rattus norvegicus [9]): 38
pIC50 [3]: 8.36
SMILES: Cc1cccc(Sc2ccccc2N2CCNCC2)c1C

pKi [1]: 7.85
pKi [2]: 7.49
pIC50 [3]: 7.29
SMILES: Cc1ccccc1Sc1ccccc1N1CCNCC1

pKi [1]: 6.85
pKi [2]: 7.21
pIC50 [3]: 7.28
SMILES: COc1cccc(Sc2ccccc2N2CCNCC2)c1
